Source: PubChem BioAssay AID2060354 (Molecular Pharmacology Branch, DTP, NCI, 2025)
Where “and” joins values, the source holds several entries; their conditions need not be identical. Equal entries are not always repeated.

System: 519858-162-T-J1-PDC spheroid growth inhibition
Experiment: Anticancer human tumor 519858-162-T-J1-PDC patient-derived colon adenocarcinoma cell line growth inhibition [TAK]
Details: spheroids with HUVEC and MSC; for viability, T/C: stronger effect = lower value
Text: Combinatorial screen of targeted agents with TAK-243 and ipatasertib in multi-cell type tumor spheroids
A high-throughput screen of multi-cell type tumor spheroids was designed to identify active combinations of targeted small molecules and TAK-243 or ipatasertib. Complex spheroids include a stromal component modeled by human endothelial cells (HUVEC) and fibroblasts modeled by human mesenchymal stem cells (MSCs). The concentration ranges selected for each drug and investigational agent were based upon clinically achievable concentrations if the clinical Cmax of the agent was known.
Compounds. The drugs and investigational agents: TAK-243 (785004), ipatasertib (767898), everolimus (733504), selumetinib (741078), bortezomib (756655), trametinib (758246), ixazomib (758254), vemurafenib (761431), dabrafenib (764134), sapanisertib (764658), alpelisib (765974), and copanlisib (816437), were obtained from the National Cancer Institute (NCI) Developmental Therapeutics Program Chemical Repository. The FDA-approved anticancer drug set is available from the NCI Developmental Therapeutics Program. […] The stock solutions were prepared in dimethyl sulfoxide (DMSO, Sigma-Aldrich, St. Louis, MO, cat. D2650) at 800-fold the tested concentration and stored at -70 degrees C prior to their use. All drugs and investigational agents were tested over a range starting from a high concentration at or near the clinical Cmax and decreasing in half-log increments. If the clinical Cmax for an agent had not been determined, the highest concentration tested was 10 microM.
NCI60 Cell Culture. NCI60 cell lines were obtained from the NCI Developmental Therapeutics Program Tumor Repository. For each lot of cells, the Repository performed Applied Biosystems AmpFLSTR Identifiler testing with PCR amplification to confirm consistency with the published Identifier STR profile for each cell line. Cells were kept in continuous culture for no more than 20 passages. The optimal seeding densities for each of the cell lines at each time point assessed were determined prior to performing the concentration response studies. Briefly, the NCI60 human tumor lines were grown as monolayers in RPMI 1640 medium supplemented with 10% FBS and 2 mmol/L L-glutamine.
An additional 2 lines were from the NCI60 cell line panel including melanomas, MALME-3M and SK-MEL-2. Pooled donor human umbilical vein endothelial cells (HUVEC, Lonza, cat. CC-2519) and human mesenchymal stem cells (hMSC, Lonza, cat. PT-2501) were purchased from Lonza (Walkersville, MD).
PDMR cell lines were grown in complete medium (DC medium): Dulbecco's modified Eagle's medium (DMEM)/F12 supplemented with 5% fetal bovine serum (FBS), 2 mM L-glutamine, 100 U/mL penicillin and 100 µg/ml streptomycin, 0.4 µg/ml hydrocortisone, 10 ng/ml epidermal growth factor (EGF) recombinant human protein, 24 µg/mL adenine, and 0.1 mg/mL primocin. During culture from frozen stock vials, PDMR cells were cultured in the same medium containing 10 µM Y-27632 (see Table 3). The PDCs were cultured in complete DMEM/F12 media without 10 microM Y-27632 dihydrochloride for at least two passages prior to the screen. The pooled donor HUVEC and hMSC were cultured in endothelial cell growth medium 2 (PromoCell, Heidelberg, Germany, cat. C-22011) and mesenchymal stem cell growth medium 2 (PromoCell, cat. C-28009), respectively. For all experiments, HUVEC and hMSC were used at passages </=5.
For the pre-screen, cell seeding densities were determined from a titration spanning the range from 5,000 to 313 cells per well. The mct-spheroids including 60% malignant cells, 25% HUVEC and 15% MSC dispensed as a mixture into U-bottom Ultra-Low Attachment 384-well plates (Corning, NY)
High-throughput Drug Combination Screening.
Prior to their inoculation into 384-well plates, malignant cells, HUVEC, and hMSC were removed from T flasks using TrypLE express (Thermo Fisher Scientific, cat. 12605036) and harvested by centrifugation for 5 min at 233 x g. […]

[1] = curve of first compound, second compound 0.3 µM
[2] = curve of first compound, second compound 0.949 µM
[3] = curve of first compound, second compound 3 µM
[4] = curve of first compound, second compound 9.49 µM
[5] = curve of first compound, second compound 30 µM
[6] = second compound 0.3 µM, first compound 0.00316 µM
[7] = second compound 0.3 µM, first compound 0.01 µM
[8] = second compound 0.3 µM, first compound 0.0316 µM
[9] = second compound 0.3 µM, first compound 0.1 µM
[10] = second compound 0.949 µM, first compound 0.00316 µM
[11] = second compound 0.949 µM, first compound 0.01 µM
[12] = second compound 0.949 µM, first compound 0.0316 µM
[13] = second compound 0.949 µM, first compound 0.1 µM
[14] = second compound 3 µM, first compound 0.00316 µM
[15] = second compound 3 µM, first compound 0.01 µM
[16] = second compound 3 µM, first compound 0.0316 µM
[17] = second compound 3 µM, first compound 0.1 µM
[18] = second compound 9.49 µM, first compound 0.00316 µM
[19] = second compound 9.49 µM, first compound 0.01 µM
[20] = second compound 9.49 µM, first compound 0.0316 µM
[21] = second compound 9.49 µM, first compound 0.1 µM
[22] = second compound 30 µM, first compound 0.00316 µM
[23] = second compound 30 µM, first compound 0.01 µM
[24] = second compound 30 µM, first compound 0.0316 µM
[25] = second compound 30 µM, first compound 0.1 µM
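Also: spheroids exposed to drugs for 7 days.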

COC1CC2CCC(C)C(O)(O2)C(=O)C(=O)N2CCCCC2C(=O)OC(C(C)CC2CCC(OCCO)C(OC)C2)CC(=O)C(C)C=C(C)C(O)C(OC)C(=O)C(C)CC(C)C=CC=CC=C1C (stereo not drawn) was tested, and the viability, T/C (compound 0.000316 µM) was 98.9% and 86.7%, the viability, T/C (compound 0.00316 µM) was 88.3% and 111% and the viability, T/C (compound 0.01 µM) was 76.2% and 91.2%. The viability, T/C (compound 0.0316 µM) was 89.6% and 75.7%, the viability, T/C (compound 0.1 µM) was 71.5% and 82.5% and the IC50 (curve of compound) was > 0.1 µM.
CC(C)NCC(C(=O)N1CCN(c2ncnc3c2C(C)CC3O)CC1)c1ccc(Cl)cc1 (stereo not drawn) was tested, and the viability, T/C (compound 3 µM) was 87% [middle of 10 runs], the viability, T/C (compound 30 µM) was 86.8% [middle of 10 runs] and the IC50 (compound alone, run of 02/28/2020) was > 30 µM.
In the case of Cn1cnc2c(F)c(Nc3ccc(Br)cc3Cl)c(C(=O)NOCCO)cc21, the viability, T/C (compound 0.00949 µM) is reported as 89.7% and 85.4%, the viability, T/C (compound 0.03 µM) is reported as 76.2% and 71.8% and the viability, T/C (compound 0.0949 µM) is reported as 45.6% and 51.8%. The viability, T/C (compound 0.3 µM) was 32.3% and 33.5%, the viability, T/C (compound 0.949 µM) was 20.3% and 21.6% and the viability, T/C (compound 3 µM) was 17.2% and 18.4%. The IC50 (curve of compound) was 0.0896 µM and 0.106 µM.
CC(C)CC(NC(=O)CNC(=O)c1cc(Cl)ccc1Cl)B1OC(=O)CC(CC(=O)O)(C(=O)O)O1 (stereo not drawn) + CC(C)NCC(C(=O)N1CCN(c2ncnc3c2C(C)CC3O)CC1)c1ccc(Cl)cc1 was tested, and the IC50 [1] was > 0.1 µM, the IC50 [2] was > 0.1 µM and the IC50 [3] was > 0.1 µM. The IC50 [4] was > 0.1 µM, the IC50 [5] was > 0.1 µM and the viability, T/C (second compound 0.3 µM, first compound 0.000316 µM) was 94.4%. It also gave a viability, T/C (second compound 0.3 µM, first compound 0.001 µM) of 101%, a viability, T/C [6] of 99% and a viability, T/C [7] of 79%. It also gave a viability, T/C [8] of 95.9%, a viability, T/C [9] of 59.7% and a viability, T/C (second compound 0.949 µM, first compound 0.000316 µM) of 114%. For the same compound, the viability, T/C (second compound 0.949 µM, first compound 0.001 µM) was 91.7%, the viability, T/C [10] was 79.5% and the viability, T/C [11] was 81.3%. For the same compound, the viability, T/C [12] was 88%, the viability, T/C [13] was 67.7% and the viability, T/C (second compound 3 µM, first compound 0.000316 µM) was 101%. The viability, T/C (second compound 3 µM, first compound 0.001 µM) was 88.5%, the viability, T/C [14] was 92.5% and the viability, T/C [15] was 71.3%. The viability, T/C [16] was 81.7%, the viability, T/C [17] was 82.9% and the viability, T/C (second compound 9.49 µM, first compound 0.000316 µM) was 90%. It also gave a viability, T/C (second compound 9.49 µM, first compound 0.001 µM) of 100%, a viability, T/C [18] of 80.4% and a viability, T/C [19] of 77.2%. For the same compound, the viability, T/C [20] was 92.5%, the viability, T/C [21] was 71.1% and the viability, T/C (second compound 30 µM, first compound 0.000316 µM) was 90.5%. It also gave a viability, T/C (second compound 30 µM, first compound 0.001 µM) of 87.7%, a viability, T/C [22] of 108% and a viability, T/C [23] of 79.5%. It also gave a viability, T/C [24] of 73.3% and a viability, T/C [25] of 78.6%.
For COc1c(OCCCN2CCOCC2)ccc2c3n(c(=NC(=O)c4cnc(N)nc4)nc12)CCN3 + CC(C)NCC(C(=O)N1CCN(c2ncnc3c2C(C)CC3O)CC1)c1ccc(Cl)cc1, the IC50 [1] was 0.269 µM, the IC50 [2] was 0.391 µM and the IC50 [3] was > 1 µM. The IC50 [4] was > 1 µM, the IC50 [5] was 0.276 µM and the viability, T/C [6] was 87.3%. The viability, T/C [7] was 78.4%, the viability, T/C [8] was 65% and the viability, T/C [9] was 57.2%. For the same compound, the viability, T/C (second compound 0.3 µM, first compound 0.316 µM) was 49.5%, the viability, T/C (second compound 0.3 µM, first compound 1 µM) was 42.5% and the viability, T/C [10] was 76.6%. It also gave a viability, T/C [11] of 75.1%, a viability, T/C [12] of 73.8% and a viability, T/C [13] of 62.2%. It also gave a viability, T/C (second compound 0.949 µM, first compound 0.316 µM) of 56.2%, a viability, T/C (second compound 0.949 µM, first compound 1 µM) of 31.9% and a viability, T/C [14] of 97.7%. The viability, T/C [15] was 71.4%, the viability, T/C [16] was 68.1% and the viability, T/C [17] was 61.5%. For the same compound, the viability, T/C (second compound 3 µM, first compound 0.316 µM) was 51%, the viability, T/C (second compound 3 µM, first compound 1 µM) was 50.1% and the viability, T/C [18] was 83.5%. For the same compound, the viability, T/C [19] was 87.2%, the viability, T/C [20] was 72% and the viability, T/C [21] was 62.1%. For the same compound, the viability, T/C (second compound 9.49 µM, first compound 0.316 µM) was 60.5%, the viability, T/C (second compound 9.49 µM, first compound 1 µM) was 56.4% and the viability, T/C [22] was 93.6%. For the same compound, the viability, T/C [23] was 77.6%, the viability, T/C [24] was 73.6% and the viability, T/C [25] was 59.1%. For the same compound, the viability, T/C (second compound 30 µM, first compound 0.316 µM) was 43% and the viability, T/C (second compound 30 µM, first compound 1 µM) was 47.8%.
For Cc1nc(NC(=O)N2CCCC2C(N)=O)sc1-c1ccnc(C(C)(C)C(F)(F)F)c1 (stereo not drawn), the viability, T/C (compound 0.0316 µM) was 104% and 89.1%, the viability, T/C (compound 0.1 µM) was 79.9% and 74% and the viability, T/C (compound 0.316 µM) was 91% and 80.8%. For the same compound, the viability, T/C (compound 1 µM) was 81.2% and 80.4%, the viability, T/C (compound 3.16 µM) was 79.6% and 74% and the viability, T/C (compound 10 µM) was 61.9% and 50%. For the same compound, the IC50 (curve of compound) was > 10 µM and 10 µM.
